Data taken from US3956274A, “New compound 6'-deoxy-'-substituted or unsubstituted amino-lividomycins and the production thereof” (Zaidan Hojin Biseibutsu Kagaku Kenkyu Kai, priority 1973, dated 1976).
≈ marks a conversion by molar mass, not a printed value. Read-outs that look alike come from different tables or passages of the source.

Assays:
[1] = system: Bacillus subtilis NRRL B-558; experiment: MIC, standard serial dilution method; assay type: cell-based; conditions: Bacillus subtilis, NRRLB558; B. subtilis NRRL B-558; nutrient agar, 37°C, 18 hours; read-out: Minimal inhibitory concentration
Description: (§1) The minimum inhibitory concentrations (mcg/ml) of 6'-amino-6'-deoxylividomycin B, 6'-deoxy-6'-methylaminolividomycin B and 6'-deoxy-6'-(2-hydroxyethylamino) lividomycin B against various microorganisms were determined according to a standard serial dilution method using nutrient agar incubation medium at 37°C, the estimation being effected after 18 hours incubation except for Mycobacterium smegmalis ATCC 607, in which the estimation being effected after 48 hours incubation. The minimum inhibitory concentrations (mcg/ml) of neomycin and lividomycin B were also determined in the same manner they also for comparison.

[2] = system: Escherichia coli K-12 J 5 R 11-2; experiment: MIC, standard serial dilution method; assay type: cell-based; conditions: Escherichia coli, K12J5R112; E. coli K-12 J 5 R 11-2; nutrient agar, 37°C, 18 hours; read-out: Minimal inhibitory concentration
Description: as §1

[3] = system: Escherichia coli K-12 LA 290 R 56; experiment: MIC, standard serial dilution method; assay type: cell-based; conditions: Escherichia coli, 18 h, read-out: Minimal inhibitory concentration
Description: as §1

[4] = system: Escherichia coli K-12 LA 290 R 64; experiment: MIC, standard serial dilution method; assay type: cell-based; conditions: Escherichia coli; E. coli K-12 LA 290 R 64; nutrient agar, 37°C, 18 hours; read-out: Minimal inhibitory concentration
Description: as §1

[5] = system: Escherichia coli K-12 ML 1410 R 81; experiment: MIC, standard serial dilution method; assay type: cell-based; conditions: Escherichia coli, 18 h, read-out: Minimal inhibitory concentration
Description: as §1

[6] = system: Escherichia coli K-12 ML 1410; experiment: MIC, standard serial dilution method; assay type: cell-based; conditions: Escherichia coli, read-out: Minimal inhibitory concentration
Description: as §1

[7] = system: Escherichia coli K-12 ML 1630; experiment: MIC, standard serial dilution method; assay type: cell-based; conditions: Escherichia coli, K12ML1630; E. coli K-12 ML 1630; nutrient agar, 37°C, 18 hours; read-out: Minimal inhibitory concentration
Description: as §1

[8] = system: Escherichia coli K-12 R-5; experiment: MIC, standard serial dilution method; assay type: cell-based; conditions: Escherichia coli, K12R5; E. coli K-12 R-5; nutrient agar, 37°C, 18 hours; read-out: Minimal inhibitory concentration
Description: as §1

[9] = system: Escherichia coli K-12 W 677; experiment: MIC, standard serial dilution method; assay type: cell-based; conditions: Escherichia coli, read-out: Minimal inhibitory concentration
Description: as §1

Escherichia coli K-12 = experiment: MIC, standard serial dilution method; assay type: cell-based; conditions: Escherichia coli, read-out: Minimal inhibitory concentration
Description: as §1

Escherichia coli NIHJ = experiment: MIC, standard serial dilution method; assay type: cell-based; conditions: Escherichia coli; E. coli NIHJ; nutrient agar, 37°C, 18 hours; read-out: Minimal inhibitory concentration
Description: as §1

[10] = system: Klebsiella pneumoniae PCI 602; experiment: MIC, standard serial dilution method; assay type: cell-based; conditions: Klebsiella pneumoniae, PCI602; K. pneumoniae PCI 602; nutrient agar, 37°C, 18 hours; read-out: Minimal inhibitory concentration
Description: as §1

[11] = system: Klebsiella pneumoniae type 22 No. 3038; experiment: MIC, standard serial dilution method; assay type: cell-based; conditions: Klebsiella pneumoniae, read-out: Minimal inhibitory concentration
Description: as §1

[12] = system: Mycobacterium smegmatis ATCC 607; experiment: MIC, standard serial dilution method; assay type: cell-based; conditions: Mycolicibacterium smegmatis, ATCC607, nutrient agar, 37°C, 48 hours, read-out: Minimal inhibitory concentration
Description: as §1

Proteus rettgeri GN 311 = experiment: MIC, standard serial dilution method; assay type: cell-based; conditions: Providencia rettgeri, GN311, nutrient agar, 37°C, 18 hours, read-out: Minimal inhibitory concentration
Description: as §1

Proteus rettgeri GN 466 = experiment: MIC, standard serial dilution method; assay type: cell-based; conditions: Providencia rettgeri, read-out: Minimal inhibitory concentration
Description: as §1

[13] = system: Pseudomonas aeruginosa 99; experiment: MIC, standard serial dilution method; assay type: cell-based; conditions: read-out: Minimal inhibitory concentration
Description: as §1

[14] = system: Pseudomonas aeruginosa A 3; experiment: MIC, standard serial dilution method; assay type: cell-based; conditions: Pseudomonas aeruginosa, A3, 18 h, read-out: Minimal inhibitory concentration
Description: as §1

[15] = system: Pseudomonas aeruginosa No.12; experiment: MIC, standard serial dilution method; assay type: cell-based; conditions: Pseudomonas aeruginosa; P. aeruginosa No.12; nutrient agar, 37°C, 18 hours; read-out: Minimal inhibitory concentration
Description: as §1

[16] = system: Pseudomonas aeruginosa TI-13-1; experiment: MIC, standard serial dilution method; assay type: cell-based; conditions: Pseudomonas aeruginosa, TI131; P. aeruginosa TI-13-1; nutrient agar, 37°C, 18 hours; read-out: Minimal inhibitory concentration
Description: as §1

Salmonella typhosa T-63 = experiment: MIC, standard serial dilution method; assay type: cell-based; conditions: Salmonella enterica, TYPHOSA, 18 h, read-out: Minimal inhibitory concentration
Description: as §1

Sarcina lutea PCI 1001 = experiment: MIC, standard serial dilution method; assay type: cell-based; conditions: Micrococcus luteus, PCI1001, nutrient agar, 37°C, 18 hours, read-out: Minimal inhibitory concentration
Description: as §1

[17] = system: Staphylococcus aureus FDA 209 P; experiment: MIC, standard serial dilution method; assay type: cell-based; conditions: Staphylococcus aureus, FDA209; S. aureus FDA 209 P; nutrient agar, 37°C, 18 hours; read-out: Minimal inhibitory concentration
Description: as §1

[18] = system: Escherichia coli K-12 JR 66/W 677; experiment: MIC, standard serial dilution method; assay type: cell-based; conditions: Escherichia coli, 18 h, read-out: Minimal inhibitory concentration
Description: as §1
(§2) In the above table, the mark * denotes the strain is a drug-resistant
(§3) strain of patient-origin.

[19] = system: Escherichia coli K-12 LA 290 R 55; experiment: MIC, standard serial dilution method; assay type: cell-based; conditions: Escherichia coli, 18 h, read-out: Minimal inhibitory concentration
Description: as §1, §2, §3

[20] = system: Escherichia coli K-12 ML 1629; experiment: MIC, standard serial dilution method; assay type: cell-based; conditions: Escherichia coli, K12ML1629; E. coli K-12 ML 1629, drug-resistant strain of patient-origin; nutrient agar, 37°C, 18 hours; read-out: Minimal inhibitory concentration
Description: as §1, §2, §3

[21] = system: Pseudomonas aeruginosa GN 315; experiment: MIC, standard serial dilution method; assay type: cell-based; conditions: Pseudomonas aeruginosa, GN315; P. aeruginosa GN 315, drug-resistant strain of patient-origin; nutrient agar, 37°C, 18 hours; read-out: Minimal inhibitory concentration
Description: as §1, §2, §3

[22] = system: kanamycin-resistant strains; conditions: in words; cited from earlier work

Row | Compound | MIC [1] | MIC [2] | MIC [3] | MIC [5] | MIC [7] | MIC [8] | MIC (Escherichia coli NIHJ) | MIC [10] | MIC [12] | MIC (Proteus rettgeri GN 311) | MIC [14] | MIC [15] | MIC [16] | MIC (Salmonella typhosa T-63) | MIC (Sarcina lutea PCI 1001) | MIC [17] | MIC [18] | MIC [19] | MIC [20] | MIC [21] | also measured
1 | NC[C@@H]1O[C@H](O[C@H]2[C@@H](O)[C@H](O[C@@H]3[C@@H](O)[C@H](N)C[C@H](N)[C@H]3O[C@H]3O[C@H](CNCCO)[C@@H](O)C[C@H]3N)O[C@@H]2CO)[C@H](N)[C@@H](O)[C@@H]1O [HALVB, 6'-deoxy-6'-(2-hydroxyethylamino) lividomycin B] | < 0.2 µg/mL | > 100 µg/mL | 0.78 µg/mL (≈ 1.21 µM) | > 100 µg/mL | > 100 µg/mL | 1.56 µg/mL (≈ 2.43 µM) | 3.12 µg/mL (≈ 4.85 µM) | 0.78 µg/mL (≈ 1.21 µM) | < 0.2 µg/mL | 50 µg/mL (≈ 77.8 µM) | 6.25 µg/mL (≈ 9.72 µM) | 0.78 µg/mL (≈ 1.21 µM) | > 100 µg/mL | 1.56 µg/mL (≈ 2.43 µM) | 25 µg/mL (≈ 38.9 µM) | 0.39 µg/mL (≈ 0.607 µM) | 6.25 µg/mL (≈ 9.72 µM) | 1.56 µg/mL (≈ 2.43 µM) | > 100 µg/mL | 12.5 µg/mL (≈ 19.4 µM) | MIC [4]: 1.56 µg/mL (≈ 2.43 µM); MIC ([6]; K12ML1410, E. coli K-12 ML 1410, nutrient agar, 37°C, 18 hours): 3.12 µg/mL (≈ 4.85 µM); MIC ([9]; K12W677, 18 h): 1.56 µg/mL (≈ 2.43 µM); MIC (Escherichia coli K-12; K12, 18 h): 1.56 µg/mL (≈ 2.43 µM); MIC ([11]; TYPE22NO.3038, K. pneumoniae type 22 No. 3038, nutrient agar, 37°C, 18 hours): 3.12 µg/mL (≈ 4.85 µM); MIC (Proteus rettgeri GN 466; GN466, 18 h): 6.25 µg/mL (≈ 9.72 µM); MIC ([13]; Pseudomonas aeruginosa, P. aeruginosa 99, nutrient agar, 37°C, 18 hours): 25 µg/mL (≈ 38.9 µM)
2 | NCC1OC(OC2C(N)CC(N)C(OC3OC(CO)C(O)C(N)C3O)C2O)C(O)CC1O (stereo not drawn) [3'-Deoxykananmycin, 3'-deoxykanamycin] | – | – | – | – | – | – | – | – | – | – | – | – | – | – | – | – | – | – | – | – | activity against kanamycin-resistant strains [22]: actually effective
3 | NC[C@@H]1O[C@H](O[C@H]2[C@@H](O)[C@H](O[C@@H]3[C@@H](O)[C@H](N)C[C@H](N)[C@H]3O[C@H]3O[C@H](CN)[C@@H](O)C[C@H]3N)O[C@@H]2CO)[C@H](N)[C@@H](O)[C@@H]1O [ALVB, 6'-amino-6'-deoxylividomycin B] | < 0.2 µg/mL | 25 µg/mL (≈ 41.8 µM) | 0.39 µg/mL (≈ 0.651 µM) | 100 µg/mL (≈ 167 µM) | 50 µg/mL (≈ 83.5 µM) | 0.39 µg/mL (≈ 0.651 µM) | 0.78 µg/mL (≈ 1.3 µM) | 0.78 µg/mL (≈ 1.3 µM) | < 0.2 µg/mL | 25 µg/mL (≈ 41.8 µM) | 1.56 µg/mL (≈ 2.61 µM) | 0.78 µg/mL (≈ 1.3 µM) | 100 µg/mL (≈ 167 µM) | 0.39 µg/mL (≈ 0.651 µM) | 0.78 µg/mL (≈ 1.3 µM) | < 0.2 µg/mL | 1.56 µg/mL (≈ 2.61 µM) | 1.56 µg/mL (≈ 2.61 µM) | 50 µg/mL (≈ 83.5 µM) | 25 µg/mL (≈ 41.8 µM) | MIC ([6]; K12ML1410, 18 h): 1.56 µg/mL (≈ 2.61 µM); MIC ([9]; K12W677, E. coli K-12 W 677, nutrient agar, 37°C, 18 hours): 0.78 µg/mL (≈ 1.3 µM); MIC (Escherichia coli K-12; K12, E. coli K-12, nutrient agar, 37°C, 18 hours): 0.78 µg/mL (≈ 1.3 µM); MIC ([11]; TYPE22NO.3038, 18 h): 1.56 µg/mL (≈ 2.61 µM); MIC (Proteus rettgeri GN 466; GN466, Proteus rettgeri GN 466, nutrient agar, 37°C, 18 hours): 3.12 µg/mL (≈ 5.21 µM); MIC ([13]; Pseudomonas aeruginosa, 99, 18 h): 1.56 µg/mL (≈ 2.61 µM)
